Like-named read-outs stand apart in the source and are kept apart here.
Test: in vivo
Design: species or system SD rats
Conditions: male, SD, rat, plasma; for AUC: read-out: Area Under Curve AUC; for clearance: read-out: Clearance Rate Cl; for C0: read-out: Initial Concentration C0; for Vd: read-out: Volume of Distribution Vd; for bioavailability: read-out: Bioavailability F; for Cmax: read-out: Peak Concentration Cmax
[1] = iv, 0.2 mg/kg, read-out: Half-life T1/2 (converted)
[2] = po, 1 mg/kg, read-out: Peak Concentration Time T1/2 (converted)

AUC (iv, 0.2 mg/kg) [µM·h] | clearance (iv, 0.2 mg/kg) [mL/min/kg] | half-life [1] [h] | C0 (iv, 0.2 mg/kg) [nM] | Vd (iv, 0.2 mg/kg) [L/kg] | AUC (po, 1 mg/kg) [µM·h] | bioavailability (po, 1 mg/kg) [%] | Cmax (po, 1 mg/kg) [nM] | half-life [2] [h] | AUC (intravenous, 0.2 mg/kg) [µM·h] | clearance (intravenous, 0.2 mg/kg) [mL/min/kg] | half-life (intravenous, 0.2 mg/kg, read-out: Half-life T1/2 (converted)) [h] | C0 (intravenous, 0.2 mg/kg) [nM] | Vd (intravenous, 0.2 mg/kg) [L/kg] | SMILES
1.33 | 8.11 | 2.31 | 773 | 1.6 | 7.32 | 110 | 1380 | 4.81 |  |  |  |  |  | C[C@H](NC1=CC(=O)C2(CCCC2)C(=O)N1)c1ccccc1 [Compound 3]
3.53 | 2.93 | 3.86 | 3700 | 0.885 | 14.8 | 88.1 | 2140 | 5.96 |  |  |  |  |  | C[C@H](NC1=CC(=O)C2(CCCC2)C(=O)N1)c1cccc(Cl)c1 [Compound 7]
2.11 | 4.78 | 5.93 | 4820 | 1.73 | 8.11 | 76.7 | 1940 | 7.35 |  |  |  |  |  | Cc1ccc(F)c([C@H](C)NC2=CC(=O)C3(CCCC3)C(=O)N2)c1 [Compound 9]
 |  |  |  |  | 7.93 |  | 1310 | 4.83 | 1.29 | 6 | 6.37 | 1460 | 2.7 | C[C@H](NC1=CC(=O)C2(CCCC2)C(=O)N1)c1cc(F)ccc1F [Compound 10]

Reference: patent publication US20240189292A1 (priority 2021, published 2024)
